Source: ChEMBL document CHEMBL2203210, “SAR and in vivo evaluation of 4-aryl-2-aminoalkylpyrimidines as potent and selective Janus kinase 2 (JAK2) inhibitors” (Bioorg Med Chem Lett, 2012)

Legend:
[1] = Inhibition of p-gp
[2] = molecular target: Voltage-gated inwardly rectifying potassium channel KCNH2 (Homo sapiens, UniProt Q12809); assay: Inhibition of human ERG
Cytochrome P450 3A4 = Cytochrome P450 3A4 (Homo sapiens, UniProt P08684); assay: Inhibition of CYP3A4; type: ADME
Cytochrome P450 2C9 = Cytochrome P450 2C9 (Homo sapiens, UniProt P11712); assay: Inhibition of CYP2C9; type: ADME
[3] = molecular target: Vascular endothelial growth factor receptor 1 (Homo sapiens, UniProt P17948); assay: Inhibition of FLT1
[4] = molecular target: Platelet-derived growth factor receptor beta (Homo sapiens, UniProt P09619); assay: Inhibition of PDGFRB
[5] = molecular target: Mast/stem cell growth factor receptor Kit (Homo sapiens, UniProt P10721); assay: Inhibition of c-KIT
Chain of Mast/stem cell growth factor receptor Kit (P10721 whole entry): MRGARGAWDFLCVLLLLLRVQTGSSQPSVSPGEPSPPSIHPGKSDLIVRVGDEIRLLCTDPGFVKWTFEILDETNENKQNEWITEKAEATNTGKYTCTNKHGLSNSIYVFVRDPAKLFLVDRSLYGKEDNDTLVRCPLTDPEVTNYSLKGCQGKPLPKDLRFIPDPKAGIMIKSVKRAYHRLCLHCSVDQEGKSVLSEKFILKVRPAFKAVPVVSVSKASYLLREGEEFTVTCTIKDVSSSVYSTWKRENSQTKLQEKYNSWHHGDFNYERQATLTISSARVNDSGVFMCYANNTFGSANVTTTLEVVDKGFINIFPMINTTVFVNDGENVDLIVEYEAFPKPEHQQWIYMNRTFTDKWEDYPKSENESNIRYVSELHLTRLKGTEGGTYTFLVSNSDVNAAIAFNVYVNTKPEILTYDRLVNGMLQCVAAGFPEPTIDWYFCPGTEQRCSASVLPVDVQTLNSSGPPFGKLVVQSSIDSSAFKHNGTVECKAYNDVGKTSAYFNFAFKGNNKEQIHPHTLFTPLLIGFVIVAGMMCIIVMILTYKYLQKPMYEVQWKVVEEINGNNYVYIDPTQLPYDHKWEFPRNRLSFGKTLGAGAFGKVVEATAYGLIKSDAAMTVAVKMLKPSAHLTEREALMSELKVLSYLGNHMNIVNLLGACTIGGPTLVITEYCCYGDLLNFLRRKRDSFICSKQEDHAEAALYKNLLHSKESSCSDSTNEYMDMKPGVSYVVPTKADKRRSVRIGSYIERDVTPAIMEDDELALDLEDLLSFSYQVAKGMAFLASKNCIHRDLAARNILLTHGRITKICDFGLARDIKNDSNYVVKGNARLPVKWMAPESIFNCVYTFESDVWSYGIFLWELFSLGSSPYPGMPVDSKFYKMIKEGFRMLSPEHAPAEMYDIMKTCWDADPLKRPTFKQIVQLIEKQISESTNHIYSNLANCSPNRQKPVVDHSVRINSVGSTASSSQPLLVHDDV

[6] = molecular target: Ribosomal protein S6 kinase beta-1 (Homo sapiens, UniProt P23443); assay: Inhibition of P70S6K
[7] = molecular target: Vascular endothelial growth factor receptor 3 (Homo sapiens, UniProt P35916); assay: Inhibition of FLT4
Chain of Vascular endothelial growth factor receptor 3 (P35916 whole entry): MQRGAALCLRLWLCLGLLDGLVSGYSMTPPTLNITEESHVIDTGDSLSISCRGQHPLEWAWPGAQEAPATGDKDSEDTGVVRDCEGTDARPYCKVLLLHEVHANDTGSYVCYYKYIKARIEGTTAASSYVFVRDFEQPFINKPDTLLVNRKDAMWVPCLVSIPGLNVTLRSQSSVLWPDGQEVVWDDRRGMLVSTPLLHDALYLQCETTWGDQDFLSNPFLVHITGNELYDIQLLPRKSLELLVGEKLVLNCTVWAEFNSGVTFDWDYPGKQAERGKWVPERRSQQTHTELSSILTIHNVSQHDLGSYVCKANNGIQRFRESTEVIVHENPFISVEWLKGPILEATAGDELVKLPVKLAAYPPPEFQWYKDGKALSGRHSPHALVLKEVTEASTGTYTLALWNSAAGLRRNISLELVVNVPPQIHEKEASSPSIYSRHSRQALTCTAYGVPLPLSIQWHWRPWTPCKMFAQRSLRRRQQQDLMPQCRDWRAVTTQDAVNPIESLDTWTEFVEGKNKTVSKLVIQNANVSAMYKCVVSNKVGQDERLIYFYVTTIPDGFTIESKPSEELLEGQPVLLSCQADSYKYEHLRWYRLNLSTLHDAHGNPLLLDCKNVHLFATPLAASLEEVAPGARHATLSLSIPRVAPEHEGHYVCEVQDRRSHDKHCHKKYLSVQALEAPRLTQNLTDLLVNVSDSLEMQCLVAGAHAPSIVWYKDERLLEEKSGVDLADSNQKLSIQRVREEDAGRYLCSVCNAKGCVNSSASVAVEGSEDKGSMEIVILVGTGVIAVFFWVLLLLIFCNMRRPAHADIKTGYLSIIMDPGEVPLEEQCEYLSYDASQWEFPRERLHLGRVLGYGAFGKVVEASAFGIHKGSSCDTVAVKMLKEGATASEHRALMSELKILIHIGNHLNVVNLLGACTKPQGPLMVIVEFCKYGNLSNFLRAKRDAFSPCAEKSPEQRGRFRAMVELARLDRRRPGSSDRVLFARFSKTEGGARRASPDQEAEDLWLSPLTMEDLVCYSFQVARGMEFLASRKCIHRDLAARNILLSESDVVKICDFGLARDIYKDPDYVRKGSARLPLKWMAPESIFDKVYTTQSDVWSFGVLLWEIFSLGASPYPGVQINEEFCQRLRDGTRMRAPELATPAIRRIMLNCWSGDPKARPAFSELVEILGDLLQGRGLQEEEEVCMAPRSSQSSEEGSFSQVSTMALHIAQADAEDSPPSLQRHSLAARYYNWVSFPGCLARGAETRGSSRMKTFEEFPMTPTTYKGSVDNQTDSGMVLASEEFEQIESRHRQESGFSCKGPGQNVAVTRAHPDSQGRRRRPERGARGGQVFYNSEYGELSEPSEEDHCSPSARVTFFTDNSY

[8] = molecular target: Non-receptor tyrosine-protein kinase TYK2 (Homo sapiens, UniProt P29597); assay: Inhibition of TYK2
[9] = molecular target: Inhibitor of nuclear factor kappa-B kinase subunit beta (Homo sapiens, UniProt O14920); assay: Inhibition of IKKbeta
Chain of Inhibitor of nuclear factor kappa-B kinase subunit beta (O14920 whole entry): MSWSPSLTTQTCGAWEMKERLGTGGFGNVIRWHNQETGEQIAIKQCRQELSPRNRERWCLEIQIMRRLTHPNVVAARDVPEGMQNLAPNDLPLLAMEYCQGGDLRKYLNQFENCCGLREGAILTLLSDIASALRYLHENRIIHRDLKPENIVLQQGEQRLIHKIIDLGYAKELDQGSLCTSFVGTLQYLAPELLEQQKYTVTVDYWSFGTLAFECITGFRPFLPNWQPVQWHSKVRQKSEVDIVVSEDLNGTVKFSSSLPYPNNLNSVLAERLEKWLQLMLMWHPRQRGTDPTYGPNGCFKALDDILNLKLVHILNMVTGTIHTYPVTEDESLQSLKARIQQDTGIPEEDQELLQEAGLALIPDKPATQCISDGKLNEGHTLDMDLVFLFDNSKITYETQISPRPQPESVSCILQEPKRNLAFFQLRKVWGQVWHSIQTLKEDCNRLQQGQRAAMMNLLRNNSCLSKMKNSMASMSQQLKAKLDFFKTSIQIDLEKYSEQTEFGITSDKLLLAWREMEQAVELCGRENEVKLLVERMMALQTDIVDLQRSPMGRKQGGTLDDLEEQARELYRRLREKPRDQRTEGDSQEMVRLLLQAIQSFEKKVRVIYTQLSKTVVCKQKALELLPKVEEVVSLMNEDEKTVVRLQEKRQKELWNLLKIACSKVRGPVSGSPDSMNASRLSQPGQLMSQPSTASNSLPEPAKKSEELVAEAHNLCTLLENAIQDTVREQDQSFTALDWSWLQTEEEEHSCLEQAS

[10] = molecular target: Receptor-type tyrosine-protein kinase FLT3 (Homo sapiens, UniProt P36888); assay: Inhibition of FLT3
[11] = molecular target: Tyrosine-protein kinase JAK1 (Homo sapiens, UniProt P23458); assay: Inhibition of JAK1
Cynomolgus monkey [12] = assay: Dose normalized AUC in cynomolgus monkey at 3 mg/kg, po; type: ADME, organism-based, Macaca fascicularis; set-up: dose 3 mg/kg, route oral; settings: in vivo
Rattus norvegicus [13] = assay: Dose normalized AUC in CD rat at 5 mg/kg, po; type: ADME, organism-based; set-up: dose 5 mg/kg, route oral; settings: in vivo
Mus musculus [14] = assay: Dose normalized AUC in athymic nude mouse at 10 mg/kg, po; type: ADME, organism-based; set-up: dose 10 mg/kg, route oral; settings: in vivo
Cynomolgus monkey [15] = assay: Dose normalized AUC in cynomolgus monkey at 3 mg/kg, iv; type: ADME, organism-based, Macaca fascicularis; set-up: dose 3 mg/kg, route intravenous; settings: in vivo
Canis familiaris = assay: Dose normalized AUC in Beagle dog at 3 mg/kg, iv; type: ADME, organism-based, Canis lupus familiaris; set-up: dose 3 mg/kg, route intravenous; settings: in vivo
Mus musculus [16] = assay: Dose normalized AUC in athymic nude mouse at 10 mg/kg, iv; type: ADME, organism-based; set-up: dose 10 mg/kg, route intravenous; settings: in vivo
[17] = Cmax in cynomolgus monkey at 3 mg/kg, po; type: ADME, organism-based, Macaca fascicularis; set-up: dose 3 mg/kg, route oral; settings: in vivo
[18] = Cmax in CD rat at 5 mg/kg, po; type: ADME, organism-based; set-up: dose 5 mg/kg, route oral; settings: in vivo
[19] = Cmax in Beagle dog at 3 mg/kg, iv; type: ADME, organism-based, Canis lupus familiaris; set-up: dose 3 mg/kg, route intravenous; settings: in vivo
[20] = Cmax in cynomolgus monkey at 3 mg/kg, iv; type: ADME, organism-based, Macaca fascicularis; set-up: dose 3 mg/kg, route intravenous; settings: in vivo
[21] = Cmax in athymic nude mouse at 10 mg/kg, iv; type: ADME, organism-based; set-up: dose 10 mg/kg, route intravenous; settings: in vivo
[22] = Cmax in CD rat at 5 mg/kg, iv; type: ADME, organism-based; set-up: dose 5 mg/kg, route intravenous; settings: in vivo
[23] = Oral bioavailability in cynomolgus monkey at 3 mg/kg; type: ADME, organism-based, Macaca fascicularis; settings: in vivo
[24] = Oral bioavailability in Beagle dog at 3 mg/kg; type: ADME, organism-based, Canis lupus familiaris; settings: in vivo
[25] = Oral bioavailability in athymic nude mouse at 10 mg/kg; type: ADME, organism-based; settings: in vivo
[26] = Half life in Beagle dog at 3 mg/kg, po; type: ADME, organism-based, Canis lupus familiaris; set-up: dose 3 mg/kg, route oral; settings: in vivo
[27] = Half life in cynomolgus monkey at 3 mg/kg, po; type: ADME, organism-based, Macaca fascicularis; set-up: dose 3 mg/kg, route oral; settings: in vivo
[28] = Half life in CD rat at 5 mg/kg, po; type: ADME, organism-based; set-up: dose 5 mg/kg, route oral; settings: in vivo
[29] = Half life in athymic nude mouse at 10 mg/kg, po; type: ADME, organism-based; set-up: dose 10 mg/kg, route oral; settings: in vivo
[30] = Half life in CD rat at 5 mg/kg, iv; type: ADME, organism-based; set-up: dose 5 mg/kg, route intravenous; settings: in vivo
[31] = Half life in athymic nude mouse at 10 mg/kg, iv; type: ADME, organism-based; set-up: dose 10 mg/kg, route intravenous; settings: in vivo
Cynomolgus monkey [32] = assay: Volume of distribution in cynomolgus monkey at 3 mg/kg, po and iv; type: ADME, organism-based, Macaca fascicularis; set-up: dose 3 mg/kg, route oral; settings: in vivo
Rattus norvegicus [33] = assay: Volume of distribution in CD rat at 5 mg/kg, po and iv; type: ADME, organism-based; set-up: dose 5 mg/kg, route oral; settings: in vivo
Mus musculus [34] = assay: Volume of distribution in athymic nude mouse at 10 mg/kg, po and iv; type: ADME, organism-based; set-up: dose 10 mg/kg, route oral; settings: in vivo
[35] = Metabolic stability in mouse liver microsomes assessed as compound remaining after 30 mins; type: ADME, Microsome; settings: read-out: Stability
HEL [36] = assay: Induction of apoptosis in HEL 92.1.7 cells xenografted in nude mouse at 300 mg/kg, po bid relative to vehicle-treated control; type: functional, Homo sapiens
HEL [37] = assay: Anitumour activity against HEL 92.1.7 cells xenografted in nude mouse assessed as tumor growth inhibition at 300 mg/kg, po bid administered up to 14 days relative to vehicle-treated control; type: functional, Homo sapiens; settings: 336 h, read-out: TGI
HEL [38] = assay: Anitumour activity against HEL 92.1.7 cells xenografted in nude mouse assessed as tumor growth inhibition at 200 mg/kg, po bid administered up to 14 days relative to vehicle-treated control; type: functional, Homo sapiens; settings: 336 h, read-out: TGI
Mus musculus [39] = assay: Inhibition of JAK2 in HEL 92.1.7 cells xenografted in nude mouse assessed as inhibition of STAT3 phosphorylation at 300 mg/kg, po after 4 hrs relative to vehicle-treated control; type: functional
Mus musculus [40] = assay: Inhibition of JAK2 in HEL 92.1.7 cells xenografted in po dosed nude mouse assessed as inhibition of STAT1 phosphorylation after 4 hrs; type: functional, organism-based
Mus musculus [41] = assay: Inhibition of JAK2 in HEL 92.1.7 cells xenografted in nude mouse assessed as inhibition of STAT3 phosphorylation at 100 mg/kg, po after 4 hrs relative to vehicle-treated control; type: functional
Mus musculus [42] = assay: Inhibition of JAK2 in HEL 92.1.7 cells xenografted in nude mouse assessed as inhibition of STAT1 phosphorylation at 300 mg/kg, po after 4 hrs relative to vehicle-treated control; type: functional
Mus musculus [43] = assay: Inhibition of JAK2 in HEL 92.1.7 cells xenografted in nude mouse assessed as inhibition of STAT3 phosphorylation at 30 mg/kg, po after 4 hrs relative to vehicle-treated control; type: functional
Mus musculus [44] = assay: Inhibition of JAK2 in HEL 92.1.7 cells xenografted in nude mouse assessed as inhibition of STAT1 phosphorylation at 100 mg/kg, po after 4 hrs relative to vehicle-treated control; type: functional
Mus musculus [45] = assay: Inhibition of JAK2 in HEL 92.1.7 cells xenografted in nude mouse assessed as inhibition of STAT1 phosphorylation at 30 mg/kg, po after 4 hrs relative to vehicle-treated control; type: functional
[46] = Drug uptake in nude mouse xenografted with HEL 92.1.7 cells at 100 mg/kg, po after 4 hrs; type: ADME, organism-based; set-up: dose 100 mg/kg, route oral; settings: in vivo, read-out: Drug uptake
[47] = Drug uptake in nude mouse xenografted with HEL 92.1.7 cells at 30 mg/kg, po after 4 hrs; type: ADME, organism-based; set-up: dose 30 mg/kg, route oral; settings: in vivo, read-out: Drug uptake
[48] = Plasma concentration in nude mouse xenografted with HEL 92.1.7 cells at 100 mg/kg, po after 4 hrs; type: ADME, organism-based; set-up: dose 100 mg/kg, route oral
[49] = Plasma concentration in nude mouse xenografted with HEL 92.1.7 cells at 30 mg/kg, po after 4 hrs; type: ADME, organism-based; set-up: dose 30 mg/kg, route oral

Chain of Voltage-gated inwardly rectifying potassium channel KCNH2 (Q12809 whole entry): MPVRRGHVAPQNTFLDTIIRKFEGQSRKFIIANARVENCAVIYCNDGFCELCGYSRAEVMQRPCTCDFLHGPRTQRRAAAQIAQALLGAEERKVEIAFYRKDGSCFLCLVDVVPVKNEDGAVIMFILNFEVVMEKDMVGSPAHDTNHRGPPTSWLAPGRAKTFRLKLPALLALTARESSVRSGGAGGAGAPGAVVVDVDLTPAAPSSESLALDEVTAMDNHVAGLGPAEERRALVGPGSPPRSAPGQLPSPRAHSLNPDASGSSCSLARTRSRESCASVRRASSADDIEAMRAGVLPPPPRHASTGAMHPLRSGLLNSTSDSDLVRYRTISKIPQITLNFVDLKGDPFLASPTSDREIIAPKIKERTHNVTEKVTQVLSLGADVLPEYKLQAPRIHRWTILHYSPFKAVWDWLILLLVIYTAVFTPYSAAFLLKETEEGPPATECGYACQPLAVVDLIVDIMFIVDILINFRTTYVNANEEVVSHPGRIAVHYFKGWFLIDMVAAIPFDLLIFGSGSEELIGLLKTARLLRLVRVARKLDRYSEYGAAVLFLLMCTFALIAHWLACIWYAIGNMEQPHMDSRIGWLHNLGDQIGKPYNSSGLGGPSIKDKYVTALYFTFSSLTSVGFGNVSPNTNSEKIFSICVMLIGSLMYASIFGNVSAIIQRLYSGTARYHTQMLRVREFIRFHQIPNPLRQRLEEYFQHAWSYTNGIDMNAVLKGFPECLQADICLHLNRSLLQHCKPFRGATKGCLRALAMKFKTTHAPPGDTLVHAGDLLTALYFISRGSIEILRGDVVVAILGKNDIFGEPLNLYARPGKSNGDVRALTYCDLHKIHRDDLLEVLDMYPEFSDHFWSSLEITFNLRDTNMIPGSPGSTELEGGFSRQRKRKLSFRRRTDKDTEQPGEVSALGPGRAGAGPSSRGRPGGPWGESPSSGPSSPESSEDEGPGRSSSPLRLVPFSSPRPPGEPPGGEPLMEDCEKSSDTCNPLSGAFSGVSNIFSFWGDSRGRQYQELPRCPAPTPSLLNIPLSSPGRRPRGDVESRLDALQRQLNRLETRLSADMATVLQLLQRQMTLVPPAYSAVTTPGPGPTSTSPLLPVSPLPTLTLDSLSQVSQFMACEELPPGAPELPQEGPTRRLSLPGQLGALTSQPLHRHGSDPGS
Chain of Cytochrome P450 3A4 (P08684 whole entry): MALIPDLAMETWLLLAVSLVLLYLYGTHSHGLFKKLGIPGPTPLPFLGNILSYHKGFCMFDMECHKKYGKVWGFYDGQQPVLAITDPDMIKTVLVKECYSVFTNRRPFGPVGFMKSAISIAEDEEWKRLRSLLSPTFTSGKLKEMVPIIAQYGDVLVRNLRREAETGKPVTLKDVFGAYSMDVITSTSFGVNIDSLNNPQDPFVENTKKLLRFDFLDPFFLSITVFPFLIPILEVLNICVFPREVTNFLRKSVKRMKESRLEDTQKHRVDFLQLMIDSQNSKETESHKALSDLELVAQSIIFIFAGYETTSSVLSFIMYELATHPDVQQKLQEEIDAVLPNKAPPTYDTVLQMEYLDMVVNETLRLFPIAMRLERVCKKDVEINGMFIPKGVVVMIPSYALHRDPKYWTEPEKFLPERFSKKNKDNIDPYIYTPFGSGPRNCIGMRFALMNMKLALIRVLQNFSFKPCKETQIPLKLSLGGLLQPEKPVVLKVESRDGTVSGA

SMILES: O=C(Nc1ccc(-c2ccnc(Nc3ccc(N4CCOCC4)cc3)n2)cc1)[C@H]1CCCN1
- INH [1]: > 20 µM
- INH [2]: 16 µM
- INH (Cytochrome P450 3A4): >= 20 uM
- INH (Cytochrome P450 2C9): >= 20 uM
- IC50 [3]: 0.91 µM
- IC50 [4]: 0.125 µM
- IC50 [5]: 0.226 µM
- IC50 [6]: 0.314 µM
- IC50 [7]: 0.555 µM
- IC50 [8]: 0.348 µM
- IC50 [9]: 0.375 µM
- IC50 [10]: 0.14 µM
- IC50 [11]: 0.134 µM
- AUC/dose (Cynomolgus monkey [12]): 1.2 µM·kg·h/mg
- AUC/dose (Rattus norvegicus [13]): 8.54 µM·kg·h/mg
- AUC/dose (Mus musculus [14]): 0.21 µM·kg·h/mg
- AUC/dose (Cynomolgus monkey [15]): 1.76 µM·kg·h/mg
- AUC/dose (Canis familiaris): 1.47 µM·kg·h/mg
- AUC/dose (Mus musculus [16]): 0.42 µM·kg·h/mg
- Cmax [17]: 490 nM
- Cmax [18]: 3530 nM
- Cmax [19]: 440 nM
- Cmax [20]: 640 nM
- Cmax [21]: 5240 nM
- Cmax [22]: 13000 nM
- bioavailability [23]: 68.6%
- bioavailability [24]: 44.8%
- bioavailability [25]: 54.5%
- half-life [26]: 5.06 h
- half-life [27]: 3.36 h
- half-life [28]: 3.23 h
- half-life [29]: 1.94 h
- half-life [30]: 3.12 h
- half-life [31]: 1.13 h
- Vd (Cynomolgus monkey [32]): 6.739 L/kg
- Vd (Rattus norvegicus [33]): 0.666 L/kg
- Vd (Mus musculus [34]): 5.319 L/kg
- remaining at 0.5 h [35]: 62%
- fold change (FC) (HEL [36]): 11.3
- inhibition in vivo at 300 mg/kg (HEL [37]): 70%
- inhibition in vivo at 200 mg/kg (HEL [38]): 60%
- inhibition in vivo at 300 mg/kg (Mus musculus [39]): 55%
- IC50 (Mus musculus [40]): 1.39 µM
- ED50 (Mus musculus [40]; po): 42 mg/kg
- inhibition in vivo at 100 mg/kg (Mus musculus [41]): 40%
- inhibition in vivo at 300 mg/kg (Mus musculus [42]): 88%
- inhibition in vivo at 30 mg/kg (Mus musculus [43]): 9%
- inhibition in vivo at 100 mg/kg (Mus musculus [44]): 72%
- inhibition in vivo at 30 mg/kg (Mus musculus [45]): 41%
- concentration at 4 h [46]: 240000 nM
- concentration at 4 h [47]: 2000 nM
- concentration at 4 h [48]: 5350 nM
- concentration at 4 h [49]: 830 nM
